This note sets out measurements from the supplement of paper PMC11061612.

What all share (assay): Bliss excess, mean over the matrix (fraction); higher = more synergy
One assay relates to NB1 (Neuroblastoma). An outline of the steps: (§1)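 Bliss excess equals the observed combination effect minus the expected value EA + EB − EA·EB, where EA and EB are the effects of each agent alone. Combination Emax is the second-highest inhibition within the matrix. Inhibition was scaled from CellTiter-Glo 2.0 luminescence, with 0 set by vehicle wells and 1 by blank wells, after 72 hours of two-drug dosing of cells plated in 1536-well plates.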

For the next assay, the system named is WM35 (Melanoma). An outline of the steps: as §1
The subject of the next assay is T47D (Breast Carcinoma). An outline of the steps: as §1
Assay [1] relates to HT-1080 (Other Solid Carcinomas). An outline of the steps:
as §1

The test system of assay [2] is LCLC-103H (Non-Small Cell Lung Carcinoma). An outline of the steps:
as §1

The next assay relates to NCI-H226 (Mesothelioma). A digest of the protocol: as §1
For assay [3], the system named is SNU-407 (Colorectal Carcinoma). A digest of the protocol: as §1
The test system of assay [4] is PL4 (Pancreatic Carcinoma). An outline of the steps:
as §1

Assay [5] concerns DBTRG-05MG (Glioblastoma). A digest of the protocol: as §1
Assay [6] relates to BxPC-3 (Pancreatic Carcinoma). An outline of the steps:
as §1

In assay [7] the test system is SCC-4 (Oral Cavity Carcinoma). An outline of the steps: as §1
The test system of the next assay is IST-MEL1 (Melanoma). An outline of the steps:
as §1

Assay [8] relates to ZR-75-30 (Breast Carcinoma). An outline of the steps: as §1
The test system of assay [9] is P32-ISH (Burkitt's Lymphoma). A digest of the protocol: as §1
Assay [10] deals with NCI-H596 (Other Solid Carcinomas). A digest of the protocol: as §1
A further assay relates to GAK (Melanoma). An outline of the steps:
as §1

The test system of assay [11] is COR-L88 (Small Cell Lung Carcinoma). A digest of the protocol:
as §1

In assay [12] the test system is MONO-MAC-6 (Acute Myeloid Leukemia). An outline of the steps:
as §1

A further assay concerns NCI-H2373 (Mesothelioma). An outline of the steps:
as §1

Assay [13] relates to NAMALWA (Burkitt's Lymphoma). An outline of the steps: as §1

With `CN(C)CCCOc1ccc(-c2ccc3ncc4c(c3c2)n(C2CCOCC2)c(=O)n4C)cn1` [AZD0156] + C[C@@H]1COCCN1C2=NC(=NC(=C2)C3(CC3)[S@](=N)(=O)C)C4=C5C=CNC5=NC=C4 [AZD6738] (first compound max 1 µM, 7x7, partner max 10 µM), the Bliss excess in the assay with NB1 (Neuroblastoma) is 0.0522; in the assay on WM35 (Melanoma) it was 0.0618; in the assay on T47D (Breast Carcinoma), -0.0223; in assay [1], 0.02; in assay [2] it was -0.0352; in the assay with NCI-H226 (Mesothelioma) it was -0.0581. The Bliss excess is -0.0322 in assay [3]; 0.0862 in assay [4]; -0.022 in assay [5]; -0.0083 in assay [6]; -0.0071 in assay [7]; -0.0196 in the assay with IST-MEL1 (Melanoma). For the same compound, the Bliss excess is -0.0305 in assay [8]; 0.0435 in [9]; -0.009 in assay [10]; 0.0448 in the assay on GAK (Melanoma); 0.0772 in assay [11]; -0.0253 in assay [12]. Further, the results for the Bliss excess (in the assay on NCI-H2373 (Mesothelioma); in assay [13]) were -0.0065 and 0.0342, respectively.
As to `Cc1c2c(nn1C)CSCc1cc(n(C)n1)CSc1cc(c3ccccc3c1)OCCCc1c(C(=O)O)n(C)c3c-2c(Cl)ccc13` [AZD5991] + CC1(C)CCC(CN2CCN(c3ccc(C(=O)NS(=O)(=O)c4ccc(NCC5CCOCC5)c([N+](=O)[O-])c4)c(Oc4cnc5[nH]ccc5c4)c3)CC2)=C(c2ccc(Cl)cc2)C1 [Venetoclax] (first compound max 1 µM, 7x7, partner max 1 µM), the Bliss excess with NB1 (Neuroblastoma) is -0.0178; with WM35 (Melanoma), 0.0181; in the assay with T47D (Breast Carcinoma), -0.0042; in assay [1] it was -0.0353; in assay [2], -0.0347; in the assay on NCI-H226 (Mesothelioma), -0.0582. The Bliss excess in [3] is 0.0014; in assay [4], -0.0611; in assay [5] it was -0.0233; in [6], 0.0411; in [7], -0.0365; in the assay with IST-MEL1 (Melanoma) it was 0.009. The Bliss excess in assay [8] was 0.0527; in assay [9], 0.0054; in assay [10], -0.0102; in the assay with GAK (Melanoma), 0.0208; in assay [11], 0.136; in assay [12], 0.136. Also, the values for the Bliss excess (in the assay on NCI-H2373 (Mesothelioma); in assay [13]) were -0.0391 and -0.0172, respectively.
Take `Cc1cc2ncnn2cc1Nc1ncc2c(n1)n(C1CCOCC1)c(=O)n2C` [AZD7648] + C=CCn1c(=O)c2cnc(Nc3ccc(N4CCN(C)CC4)cc3)nc2n1-c1cccc(C(C)(C)O)n1 [AZD1775] (first compound max 10 µM, partner max 1 µM): the Bliss excess is -0.0015 in the assay with NB1 (Neuroblastoma); -0.0364 in the assay with WM35 (Melanoma); -0.0146 in the assay with T47D (Breast Carcinoma); 0.0591 in [1]; 0.002 in assay [2]; -0.004 in the assay with NCI-H226 (Mesothelioma). Moreover, the Bliss excess in assay [3] was 0.0134; in assay [4], 0.0057; in assay [5] it was 0.0039; in [6] it was -0.0502; in [7] it was -0.0714; in the assay on IST-MEL1 (Melanoma), -0.011. Moreover, the Bliss excess in [8] is -0.0678; in assay [9], -0.0011; in [10] it was -0.0342; with GAK (Melanoma) it was -0.0275; in assay [11] it was -0.0543; in assay [12] it was -0.0188. For the same compound, the figures for the Bliss excess (in the assay with NCI-H2373 (Mesothelioma); in [13]) were -0.0322 and -0.0101, respectively.
On to `CS(=O)(=O)CCNCc1ccc(-c2ccc3ncnc(Nc4ccc(OCc5cccc(F)c5)c(Cl)c4)c3c2)o1` [Lapatinib] + C[C@@H](Oc1cc(-c2cnn(C3CCNCC3)c2)cnc1N)c1c(Cl)ccc(F)c1Cl [Crizotinib] (first compound max 10 µM, 7x7, partner max 10 µM), for which the Bliss excess in the assay on NB1 (Neuroblastoma) was 0.0158; in the assay on WM35 (Melanoma), -0.0446; with T47D (Breast Carcinoma), -0.0223; in assay [1], -0.012; in assay [2], -0.0152; in the assay on NCI-H226 (Mesothelioma), -0.0513. Moreover, the Bliss excess in assay [3] is -0.0774; in assay [4] it was 0.0434; in [5], -0.0334; in [6] it was -0.0259; in [7] it was 0.0003; in the assay with IST-MEL1 (Melanoma) it was -0.0095. Further, the Bliss excess is -0.0031 in assay [8]; 0.0037 in [9]; -0.0065 in [10]; -0.0066 with GAK (Melanoma); -0.0234 in assay [11]; -0.0438 in assay [12]. The Bliss excess is -0.0258 with NCI-H2373 (Mesothelioma) and -0.0528 in assay [13].
As to `C=CCn1c(=O)c2cnc(Nc3ccc(N4CCN(C)CC4)cc3)nc2n1-c1cccc(C(C)(C)O)n1` [AZD1775] + O=C(c1cc(Cc2n[nH]c(=O)c3ccccc23)ccc1F)N1CCN(C(=O)C2CC2)CC1 [Olaparib] (first compound max 1 µM, partner max 10 µM), the Bliss excess was -0.0795 in the assay with NB1 (Neuroblastoma); -0.0146 in the assay on WM35 (Melanoma); -0.0095 in the assay on T47D (Breast Carcinoma); -0.0327 in [1]; -0.0334 in [2]; -0.035 in the assay with NCI-H226 (Mesothelioma). Also, the Bliss excess in assay [3] is -0.0364; in assay [4] it was 0.0037; in assay [5], -0.0747; in assay [6], -0.0266; in [7], -0.0341; with IST-MEL1 (Melanoma), -0.0596. In addition, the Bliss excess in [8] was -0.0461; in assay [9] it was -0.0323; in [10], -0.0963; in the assay on GAK (Melanoma) it was -0.0243; in assay [11], -0.0925; in [12], 0.0004. Also, the Bliss excess in the assay with NCI-H2373 (Mesothelioma) was -0.013; in assay [13], -0.0133.
`CC1(C)CCC(CN2CCN(c3ccc(C(=O)NS(=O)(=O)c4ccc(NCC5CCOCC5)c([N+](=O)[O-])c4)c(Oc4cnc5[nH]ccc5c4)c3)CC2)=C(c2ccc(Cl)cc2)C1` [Venetoclax] + C[C@@H]1COCCN1C2=NC(=NC(=C2)C3(CC3)[S@](=N)(=O)C)C4=C5C=CNC5=NC=C4 [AZD6738] (first compound max 1 µM, 7x7, partner max 10 µM): the Bliss excess in the assay with NB1 (Neuroblastoma) is -0.0444; in the assay with WM35 (Melanoma), 0.023; in the assay with T47D (Breast Carcinoma), -0.0634; in assay [1], -0.0253; in assay [2], -0.0085; in the assay on NCI-H226 (Mesothelioma), -0.0383. Besides, the Bliss excess in assay [3] is -0.0138; in assay [4] it was -0.0918; in assay [5], 0.0023; in assay [6] it was 0.0101; in [7] it was -0.134; in the assay with IST-MEL1 (Melanoma), -0.019. In addition, the Bliss excess in [8] was -0.0359; in [9], 0.0365; in assay [10] it was -0.0571; in the assay on GAK (Melanoma), -0.0586; in [11], 0.0109; in [12], -0.0322. Moreover, the Bliss excess in the assay on NCI-H2373 (Mesothelioma) is -0.0052; in assay [13], -0.0029.
